Laboratory results as given in US10202658B2, “Methods for determining hypersusceptibility of HIV-1 to non-nucleoside reverse transcriptase inhibitors” (Monogram Biosciences, Inc., priority 2005, dated 2019).

Tests used:
Assay type in all cases: cell-based
Settings in all cases: share of samples designated hypersusceptible
[1] = test system: HIV-1, RT mutations: T215Y and 2 TAMs; experiment: PhenoSense resistance test vector assay, clinical isolates with T215Y and 2 TAMs
Experimental: (§1) In preferred embodiments, the phenotypic analysis of NNRTI hypersusceptibility is performed using PHENOSENSE™ (ViroLogic Inc., South San Francisco, Calif.). See Petropoulos et al., 2000, Antimicrob. Agents Chemother. 44:920-928; U.S. Pat. Nos. 5,837,464 and 6,242,187. PHENOSENSE™ is a phenotypic assay that achieves the benefits of phenotypic testing and overcomes the drawbacks of previous assays. Because the assay has been automated, PHENOSENSE™ provides high throughput methods under controlled conditions for determining NNRTI resistance, susceptibility, or hypersusceptibility of a large number of individual viral isolates.
(§2) The assay can be performed by first co-transfecting host cells with RTV DNA and a plasmid that expresses the envelope proteins of another retrovirus, for example, amphotropic murine leukemia virus (MLV). Following transfection, viral particles can be harvested from the cell culture and used to infect fresh target cells in the presence of varying amounts of anti-viral drug(s). The completion of a single round of viral replication in the fresh target cells can be detected by the means for detecting replication contained in the vector. […] The susceptibility of an HIV, or population of HIV, can be determined by measuring the concentration of antiviral drug at which the luciferase activity detected is half-maximal. […]

HIV-1, RT mutations: 65R = experiment: PhenoSense resistance test vector assay, clinical isolates with 65R
Experimental: as §1, §2

[2] = test system: HIV-1, RT mutations: 65R and 184V; experiment: PhenoSense resistance test vector assay, clinical isolates with 65R and 184V
Experimental: as §1, §2

Structure (SMILES)	% IC50 0.4 fold < WT [1]	% IC50 0.4 fold < WT (HIV-1, RT mutations: 65R)	% IC50 0.4 fold < WT [2]
CC(C)Nc1cccnc1N1CCN(C(=O)c2cc3cc(NS(C)(=O)=O)ccc3[nH]2)CC1 [DLV, delavirdine]	71.8%	44.4%	42.7%
Cc1ccnc2c1NC(=O)c1cccnc1N2C1CC1 [NVP, nevirapine]	31.3%	55.6%	50.7%
